Experimental data reported in US20250214947A1, “3,4-DIHYDROQUINOXALINE-2-CARBOXIMIDE DERIVATIVE COMPOUND AND PHARMACEUTICAL COMPOSITION COMPRISING SAME FOR PREVENTING OR TREATING CANCER DISEASE” (Cureverse Incorporated, priority 2022, published 2025).

What was measured:
HDAC8 = target: T1, HDAC8 (Homo sapiens, UniProt Q9BY41); experiment: HDAC8 inhibitory activity analysis (in vitro), RFU analysis, HDAC Fluorogenic assay kit; format: biochemical; conditions: 10 μM; compared with TSA or SAHA
T1 construct: purchased BPS bioscience
T1 sequence (Q9BY41 1-377): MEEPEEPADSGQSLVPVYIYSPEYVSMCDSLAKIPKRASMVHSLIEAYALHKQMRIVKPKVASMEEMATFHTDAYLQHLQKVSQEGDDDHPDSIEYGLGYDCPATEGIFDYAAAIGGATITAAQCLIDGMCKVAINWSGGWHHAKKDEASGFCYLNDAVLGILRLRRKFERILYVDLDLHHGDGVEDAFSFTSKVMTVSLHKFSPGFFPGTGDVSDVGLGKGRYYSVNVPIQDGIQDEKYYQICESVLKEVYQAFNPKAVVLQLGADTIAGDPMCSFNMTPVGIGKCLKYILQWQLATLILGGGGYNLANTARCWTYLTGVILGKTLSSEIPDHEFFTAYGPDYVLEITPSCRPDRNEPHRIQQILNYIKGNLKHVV
Method: The compound of the Example was diluted to 1 mM (1% DMSO concentration) using DMSO to obtain a final concentration of 10 μM, and prepared by diluting 1/10 with assay buffer. In a 96-well black round-bottom plate, 5 μL of the diluted compound of the Example, 5 μL of the diluted HDAC substrate 2A, 5 μL of BSA (1 mg/mL), 5 µL of the HDAC8 enzyme diluted to an appropriate concentration, and 30 μL of assay buffer were added, and the enzyme reaction was performed at 37° C. for 30 minutes. […] Afterwards, 50 μL of 2×HDAC developer was added to each well. After reacting for 15 minutes at room temperature, the fluorescence values at excitation wavelengths of 350-380 nm and emission wavelengths of 440-460 nm were measured using a microplate reader (Synergy Neo).

[1] = system: PC-3 prostate cancer cells; experiment: Prostate cancer cell growth inhibition, CCK-8 assay; format: cell-based, human; conditions: various concentrations, FIG. 1
Method: PC-3, a human-derived prostate cancer cell line, was cultured with RPMI1640 (10% fetal bovine serum, 1% Penicillin Streptomycin) culture medium at 37° C., 5% CO2 condition. All cells in the experiment were subcultured when they reached a confluency of approximately 80% to 90%, and only cells that had not passed 20 passages were used.
After culturing, 10 L CCK-8 reagent was added and the absorbance was measured after 1 hour. The absorbance was measured at 450 nm using a microplate reader [BMG Labtech (Offenburg, Germany)].

Liver cancer cells Huh-7 = experiment: Liver cancer cell growth inhibition, CellTiter-Glo Luminescent Cell Viability Assay; format: cell-based; conditions: various concentrations; day 1; FIG. 6
Method: In addition, an analysis of liver cancer growth inhibitory activity was performed. Liver cancer cells Huh-7 cells were dispensed in a 96-well plate at 1×10^4 cells/ml, and after 20 hours, PCI34051, Example 27, and Example 35 were added at various concentrations, and cultured for 24 and 48 hours at 37° C. in a 5% CO2 atmosphere. After culturing, 100 l CellTiter-Glo Luminescent Cell Viability Assay reagent was added and the luminescence signal was measured after 0.5-1 hour. The luminescence signal was measured using IVIS [PerkinElmer, (Waltham, USA)].

HDAC1 = HDAC1 (Homo sapiens, UniProt Q13547); experiment: Selective inhibitory effect, HDAC Fluorogenic assay kit, HDAC1; conditions: read-out: HDAC1 enzyme activity (%)
Method: (§1) For analysis, HDAC substrate 3 was diluted in buffer to a concentration of 200 μM and used in HDAC 1, 2, 3, 6, and 10 assays, HDAC substrate 2A was diluted in buffer to a concentration of 200 μM and used in HDAC 4, 7, 9, and 11 assays, HDAC substrate 2A was diluted in buffer to a concentration of 20 μM and used in HDAC 8 assays. For the HDAC 11 assay, a dedicated buffer included in the kit was used separately, and the same buffer was used for the remaining assays. The compound of the Example was diluted to 1 mM (1% DMSO concentration) using DMSO to obtain a final concentration of 10 μM, and prepared by diluting 1/10 with assay buffer. In a 96-well black round-bottom plate, 5 μL of the diluted compound of the Example, 5 μL of the diluted HDAC substrate, 5 μL of BSA (1 mg/ml), 5 μL of the HDAC enzyme diluted to the appropriate concentration, and 30 μL of assay buffer were added, and the enzyme reaction was performed at 37° C. for 30 minutes. […] Afterwards, 50 μL of 2×HDAC developer was added to each well. After reacting for 15 minutes at room temperature, the fluorescence values at excitation wavelengths of 350-380 nm and emission wavelengths of 440-460 nm were measured using a microplate reader (Synergy Neo).

HDAC2 = HDAC2 (Homo sapiens, UniProt Q92769); experiment: Selective inhibitory effect, HDAC Fluorogenic assay kit, HDAC2; conditions: read-out: HDAC2 enzyme activity (%)
Method: as §1

HDAC6 = target: T2, HDAC6 (Homo sapiens, UniProt Q9UBN7); experiment: Selective inhibitory effect, HDAC Fluorogenic assay kit, HDAC6; conditions: read-out: HDAC6 enzyme activity (%)
T2 sequence (Q9UBN7 1-1215): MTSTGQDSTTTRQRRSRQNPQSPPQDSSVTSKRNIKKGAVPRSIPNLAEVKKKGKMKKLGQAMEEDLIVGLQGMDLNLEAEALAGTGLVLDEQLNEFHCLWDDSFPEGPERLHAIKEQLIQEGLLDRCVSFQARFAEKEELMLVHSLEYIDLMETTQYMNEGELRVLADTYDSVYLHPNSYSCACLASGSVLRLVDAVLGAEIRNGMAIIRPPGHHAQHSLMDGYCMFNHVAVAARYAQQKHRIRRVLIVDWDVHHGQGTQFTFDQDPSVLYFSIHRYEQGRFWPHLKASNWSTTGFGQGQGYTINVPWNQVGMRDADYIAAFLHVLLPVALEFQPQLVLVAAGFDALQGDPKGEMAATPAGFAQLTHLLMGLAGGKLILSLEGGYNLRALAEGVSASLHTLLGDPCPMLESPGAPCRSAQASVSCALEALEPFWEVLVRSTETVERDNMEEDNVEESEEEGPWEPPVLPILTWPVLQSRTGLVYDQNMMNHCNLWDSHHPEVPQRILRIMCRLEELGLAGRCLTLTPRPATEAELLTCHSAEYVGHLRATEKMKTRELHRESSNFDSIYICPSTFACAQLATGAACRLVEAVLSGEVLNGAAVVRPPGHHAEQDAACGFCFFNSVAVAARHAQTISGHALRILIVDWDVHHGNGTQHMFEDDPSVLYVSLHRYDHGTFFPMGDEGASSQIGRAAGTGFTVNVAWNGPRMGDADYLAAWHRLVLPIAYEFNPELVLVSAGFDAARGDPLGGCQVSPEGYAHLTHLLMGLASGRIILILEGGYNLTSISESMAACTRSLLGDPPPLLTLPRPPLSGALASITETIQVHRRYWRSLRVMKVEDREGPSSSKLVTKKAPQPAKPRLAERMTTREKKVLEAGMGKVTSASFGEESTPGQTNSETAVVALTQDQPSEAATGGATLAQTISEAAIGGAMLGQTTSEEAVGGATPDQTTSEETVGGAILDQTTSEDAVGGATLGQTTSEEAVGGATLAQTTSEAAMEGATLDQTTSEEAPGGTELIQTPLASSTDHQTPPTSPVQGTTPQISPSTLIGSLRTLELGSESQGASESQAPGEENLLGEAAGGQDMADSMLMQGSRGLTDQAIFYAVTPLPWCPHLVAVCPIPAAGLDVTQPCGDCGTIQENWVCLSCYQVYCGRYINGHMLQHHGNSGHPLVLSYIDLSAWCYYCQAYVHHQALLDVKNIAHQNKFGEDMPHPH
Method: as §1

HDAC10 = target: T3, HDAC10 (Homo sapiens, UniProt Q969S8); experiment: Selective inhibitory effect, HDAC Fluorogenic assay kit, HDAC10; conditions: read-out: HDAC10 enzyme activity (%)
T3 sequence (Q969S8 1-669): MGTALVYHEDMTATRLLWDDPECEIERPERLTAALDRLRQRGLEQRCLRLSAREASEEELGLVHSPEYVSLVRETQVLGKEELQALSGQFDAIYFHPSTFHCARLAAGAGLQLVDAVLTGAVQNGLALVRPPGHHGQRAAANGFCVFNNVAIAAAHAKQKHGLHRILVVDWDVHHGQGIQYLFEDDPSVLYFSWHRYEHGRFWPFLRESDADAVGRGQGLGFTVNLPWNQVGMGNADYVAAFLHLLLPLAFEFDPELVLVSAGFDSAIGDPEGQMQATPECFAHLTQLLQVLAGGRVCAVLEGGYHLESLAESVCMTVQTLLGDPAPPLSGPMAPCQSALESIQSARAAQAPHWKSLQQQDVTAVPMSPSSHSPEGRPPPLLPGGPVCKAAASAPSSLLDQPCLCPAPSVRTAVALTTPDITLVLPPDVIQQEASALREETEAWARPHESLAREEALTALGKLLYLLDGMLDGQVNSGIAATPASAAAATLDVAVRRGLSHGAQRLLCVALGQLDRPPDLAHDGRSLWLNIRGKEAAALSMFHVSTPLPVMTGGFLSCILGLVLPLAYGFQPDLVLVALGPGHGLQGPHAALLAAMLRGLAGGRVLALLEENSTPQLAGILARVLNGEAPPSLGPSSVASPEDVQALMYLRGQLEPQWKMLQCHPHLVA
Method: as §1

HDAC2, sequence (Q92769 whole entry): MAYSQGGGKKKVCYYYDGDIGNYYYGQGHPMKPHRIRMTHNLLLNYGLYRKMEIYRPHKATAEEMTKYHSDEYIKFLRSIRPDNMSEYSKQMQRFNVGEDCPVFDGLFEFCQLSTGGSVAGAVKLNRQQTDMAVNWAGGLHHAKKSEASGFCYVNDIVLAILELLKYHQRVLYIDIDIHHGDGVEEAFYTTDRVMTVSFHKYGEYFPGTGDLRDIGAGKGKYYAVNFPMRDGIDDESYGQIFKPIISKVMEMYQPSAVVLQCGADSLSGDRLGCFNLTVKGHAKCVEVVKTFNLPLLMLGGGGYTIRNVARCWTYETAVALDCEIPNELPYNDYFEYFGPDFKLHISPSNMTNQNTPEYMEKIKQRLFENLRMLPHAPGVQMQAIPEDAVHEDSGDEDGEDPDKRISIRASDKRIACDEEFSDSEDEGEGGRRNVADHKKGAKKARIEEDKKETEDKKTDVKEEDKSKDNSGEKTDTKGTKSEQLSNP
HDAC1, sequence (Q13547 whole entry): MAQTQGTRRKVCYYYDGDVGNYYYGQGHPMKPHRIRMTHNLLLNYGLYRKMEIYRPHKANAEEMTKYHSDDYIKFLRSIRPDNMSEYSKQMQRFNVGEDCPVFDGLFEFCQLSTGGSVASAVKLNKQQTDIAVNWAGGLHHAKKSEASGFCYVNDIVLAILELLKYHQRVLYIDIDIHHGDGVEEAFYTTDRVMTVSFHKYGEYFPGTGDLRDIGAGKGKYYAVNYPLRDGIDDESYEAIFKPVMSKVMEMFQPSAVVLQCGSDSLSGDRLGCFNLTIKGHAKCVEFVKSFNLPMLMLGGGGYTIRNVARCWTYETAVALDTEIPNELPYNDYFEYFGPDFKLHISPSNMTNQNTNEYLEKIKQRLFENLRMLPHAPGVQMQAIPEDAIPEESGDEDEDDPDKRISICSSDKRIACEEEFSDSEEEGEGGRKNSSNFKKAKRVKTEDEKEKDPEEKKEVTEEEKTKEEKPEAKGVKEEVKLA

SMILES: Cc1cc2nc(C(=O)Nc3cc(-c4ccc(Br)cc4)no3)c(=O)n(C[C@H](O)[C@H](O)[C@H](O)CO)c2cc1C [Example 10, N-(3-(4-bromophenyl)isoxazol-5-yl)-6,7-dimethyl-3-oxo-4-((2S,3S,4R)-2,3,4,5-tetrahydroxypentyl)-3,4-dihydroquinoxaline-2-carboxamide]
- inhibitory activity against HDAC8 (in words) (HDAC8): inhibitory activity similar to TSA or SAHA

SMILES: Cc1cc2nc(C(=O)NCc3ccc4[nH]cnc4c3)c(=O)n(C[C@H](O)[C@H](O)[C@H](O)CO)c2cc1C [Example 34, N-((1H-benzo[d]imidazol-5-yl)methyl)-6,7-dimethyl-3-oxo-4-((2S,3S,4R)-2,3,4,5-tetrahydroxypentyl)-3,4-dihydroquinoxaline-2-carboxamide]
- inhibitory activity against HDAC8 (in words) (HDAC8): inhibitory activity similar to TSA or SAHA

SMILES: Cc1cc2nc(C(=O)Nc3nc4c(F)cccc4[nH]3)c(=O)n(C[C@H](O)[C@H](O)[C@H](O)CO)c2cc1C [Example 35, N-(4-fluoro-1H-benzo[d]imidazol-2-yl)-6,7-dimethyl-3-oxo-4-((2S,3S,4R)-2,3,4,5-tetrahydroxypentyl)-3,4-dihydroquinoxaline-2-carboxamide]
- PC-3 cell viability after 24 hours (in words) ([1]; 24 hours): concentration-dependent inhibition of cancer cell viability
- PC-3 cell viability after 48 hours (in words) ([1]; 48 hours): cell viability was restored
- Huh-7 cell viability (in words) (Liver cancer cells Huh-7): concentration-dependent inhibition of cancer cell viability
- inhibitory activity against HDAC8 (in words) (HDAC8): inhibitory activity similar to TSA or SAHA

SMILES: Cc1cc2nc(C(=O)Nc3ccc(C(=O)NO)cc3)c(=O)n(C[C@H](O)[C@H](O)[C@H](O)CO)c2cc1C [Example 48, N-(4-(hydroxycarbamoyl)phenyl)-6,7-dimethyl-3-oxo-4-((2S,3S,4R)-2,3,4,5-tetrahydroxypentyl)-3,4-dihydroquinoxaline-2-carboxamide]
- inhibitory activity against HDAC8 (in words) (HDAC8): inhibitory activity similar to TSA or SAHA

SMILES: Cc1cc2nc(C(=O)NCc3ccc(CC(=O)NO)cc3)c(=O)n(C[C@H](O)[C@H](O)[C@H](O)CO)c2cc1C [Example 49, N-(4-(2-(hydroxyamino)-2-oxoethyl)benzyl)-6,7-dimethyl-3-oxo-4-((2S,3S,4R)-2,3,4,5-tetrahydroxypentyl)-3,4-dihydroquinoxaline-2-carboxamide]
- inhibitory activity against HDAC8 (in words) (HDAC8): inhibitory activity similar to TSA or SAHA

SMILES: Cc1cc2nc(C(=O)Nc3cc(C(=O)NO)ccc3C)c(=O)n(C[C@H](O)[C@H](O)[C@H](O)CO)c2cc1C [Example 51, N-(5-(hydroxycarbamoyl)-2-methylphenyl)-6,7-dimethyl-3-oxo-4-((2S,3S,4R)-2,3,4,5-tetrahydroxypentyl)-3,4-dihydroquinoxaline-2-carboxamide]
- inhibitory activity against HDAC8 (in words) (HDAC8): inhibitory activity similar to TSA or SAHA

SMILES: COc1ccc(Cn2ccc3ccc(C(=O)NO)cc32)cc1 [PCI-34051, N-hydroxy-1-(4-methoxybenzyl)-1H-indole-6-carboxamide, reference compound]
- Huh-7 cell viability (in words) (Liver cancer cells Huh-7): concentration-dependent inhibition of cancer cell viability

SMILES: CC(/C=C/C(=O)NO)=C\[C@@H](C)C(=O)c1ccc(N(C)C)cc1 [TSA, Trichostatin A, reference compound]
- remaining activity at 10 µM (HDAC1): 1.22%
- remaining activity at 10 µM (HDAC2): 0.7%
- remaining activity at 10 µM (HDAC6): 1.11%
- remaining activity at 10 µM (HDAC10): 1.21%
